Active and inactive are the calls of the source.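 Rule for the calls: active = compounds giving half or more protection of infected cells from virus-caused growth loss, again on retest; inactive = the rest.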
Tested on: CEM cells HIV-1 protection, formazan growth assay
Assay: NCI AIDS Antiviral Assay
Conditions: for IC50: measured here: growth of uninfected CEM cells
Summary of the method: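 Human CEM cells, uninfected and HIV-1-infected, received five drug concentrations, and growth was read by soluble formazan assay. Compounds giving at least 50% protection were retested; reproducible 100% protection defined confirmed active.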

Row | SMILES | EC50 [µM] | IC50 [µM] | outcome
1 | C[N+](C)(CCOc1ccccc1)Cc1cccs1 | > 200 | > 200 | –
2 | COc1cc2c(c(OC)c1OC)C(=O)[C@H](Br)[C@H]2NC(=O)NCCCl | > 200 | 32.4 | –
3 | CC(=O)Oc1ccn2nc(C)c(Cc3c(C)nn4ccc(OC(C)=O)cc34)c2c1 | > 200 | 28.2 | –
4 | Cn1cc(NC(=O)Nc2cc(C(=O)Nc3cc(C(=O)Nc4ccc5c(S(=O)(=O)O)cccc5c4S(=O)(=O)O)n(C)c3)n(C)c2)cc1C(=O)Nc1cc(C(=O)Nc2ccc3c(S(=O)(=O)O)cccc3c2S(=O)(=O)O)n(C)c1 | 22.9 | 148 | –
5 | C=C(C)CN1C(=O)C(C)S/C1=N/N=C1/SCC(=O)N1C (centres undefined) | > 42.7 | > 42.7 | –
6 | CC(=O)NC(CSSCC(NC(C)=O)C(=O)O)C(=O)O (centres undefined) | > 776 | > 776 | –
7 | C=CCNC(=O)N1CC(C)C(=O)Nc2ccccc21 (centres undefined) | > 200 | > 200 | –
8 | O=C1NCN(c2ccccc2)C12CCN(Cc1ccccc1)CC2 | > 200 | > 200 | –
9 | C(=Nc1ccc(SSc2ccc(N=C=C(c3ccccc3)c3ccccc3)cc2)cc1)=C(c1ccccc1)c1ccccc1 | > 200 | > 200 | –
10 | Cc1cc(S(=O)(=O)NC(=NCC(=O)NN)NN)c(S)cc1Cl | > 200 | 34.7 | –
11 | O=C1OCCN(c2cccc(Cl)c2)CCO1 | – | – | inactive
12 | CN1C(=O)C2(C#N)C3(CCCC3)C2(C#N)C1=O (centres undefined) | > 43.7 | > 43.7 | –
13 | COc1c(Cl)cc(Cl)cc1S(=O)O | – | – | inactive
14 | COc1ccc(NC(C)=O)cc1C1CCC(=O)N1 (centres undefined) | – | – | inactive
15 | COc1cc2c(cc1OC)C13CCN4CC5=CCOC(CC(=O)O)C(C5CC41)C3N2 (centres undefined) | 25.7 | 151 | –
16 | N#C/C(=C\c1cc(O)c(O)c(O)c1)C(N)=O | > 200 | 91.2 | –
17 | O=C(CSc1nnc(-c2ccc(N=Cc3ccc(Cl)cc3)cc2)o1)Nc1ccccc1 | > 112 | 42.7 | –
18 | CC(=O)NC1=NC(=O)/C(=C/c2ccccc2Cl)N1C | > 200 | > 200 | –
19 | COc1c(C(CC(C)C)OC(C)=O)ccc2c1C(=O)OCc1cc(C)cc(O)c1O2 (centres undefined) | > 200 | 10.5 | –
20 | COc1ccc(C23OCN(c4ccccc4)C2(c2ccc(OC)cc2)c2ccccc2N3C)cc1 (centres undefined) | > 200 | > 200 | –
21 | CC12CCC(=O)N1c1cnccc1N2 (centres undefined) | > 200 | > 200 | –
22 | O=[N+]([O-])C(/C=C(\Cl)[N+](=O)[O-])=C1Nc2ccccc2N1 | > 200 | 35.5 | –

Row | SMILES | EC50 [µM] | IC50 [µM] | outcome
23 | COCc1c(C)oc2c(C)c3oc(=O)cc(C)c3cc12 | > 110 | > 110 | –
24 | C=CC[C@H]1[C@@H](O[Si](C)(C)C(C)(C)C)[C@H](n2ccc(=O)[nH]c2=O)O[C@@H]1CO[Si](C)(C)C(C)(C)C | > 200 | 10 | –
25 | Cc1cc2c(c3oc(C4(C)OC4C4OC4C)cc(=O)c13)C(=O)c1c(O)c(C3CC(C)(N(C)C)C(O)C(C)O3)cc(C3CC(N(C)C)C(O)C(C)O3)c1C2=O (centres undefined) | > 0.002 | 9.55e-05 | –
26 | O=C1NC(SSC2=NNC3(C(=O)N2)c2ccccc2-c2ccccc23)=NNC12c1ccccc1-c1ccccc12 | – | – | inactive
27 | CCOC(=O)c1nc2c(C)nc(N(C)C)nc2n(C)c1=O | > 200 | > 200 | –
28 | N#CSCc1cccc(Nc2cc(=O)[nH]c(=O)[nH]2)c1 | > 200 | 25.7 | –
29 | COC1N(C2CC(N=[N+]=[N-])C(CO)O2)C(=O)NC(=O)C1(C)Cl (centres undefined) | 6.61 | 891 | –
30 | COc1cccc(C(=O)N[C@@H]2[C@H](O)[C@@H](CO)O[C@H]2n2cnc3c(N)ncnc32)c1 | > 200 | > 200 | –
31 | CC(=O)O/C=C\OC1CCCC1 | > 200 | > 200 | –
32 | CCOC(=O)C(O)(CC1=NC(C(=O)OC)(C(=O)OC)C(c2cccc(C=O)c2)O1)C(=O)OCC (centres undefined) | > 200 | > 200 | –
33 | O=C1C2=C(c3ccccc31)C(c1ccc(Cl)cc1)N1C(=O)CCSC1=N2 (centres undefined) | > 49 | > 49 | –
34 | Cc1c(Cl)ccc2c1NC(=O)C2(O)CC(=O)c1ccc2ccccc2c1 (centres undefined) | > 19.5 | > 19.5 | –
35 | COc1cc(Cl)cc(N(O)C(C)=O)c1OCc1ccccc1 | > 562 | 58.9 | –
36 | COc1ccc(C2=Nc3c(nc(SC)[nH]c3=O)NC(c3ccccc3)C2)cc1 (centres undefined) | – | – | inactive
37 | CCOC(=O)c1nnsc1NC(=O)NCCCCCCn1c(=O)n(CCCCCCNC(=O)Nc2snnc2C(=O)OCC)c(=O)n(CCCCCCNC(=O)Nc2snnc2C(=O)OCC)c1=O | > 200 | > 200 | –
38 | Cc1cccc(O)c1-c1nnc(CCCCCCCCc2nnc(-c3c(C)cccc3O)n2N)n1N | > 200 | 2.95 | –
39 | Cc1[nH]c2ccccc2c1CC/C(=N\Nc1ccccc1)c1ccccc1 | – | – | inactive
40 | COc1ccc(CCn2cnc3ccccc32)cc1 | > 200 | > 200 | –
41 | Cc1cc(C)nc(NS(=O)(=O)c2ccc(N=c3c4ccccc4n(C)c4ccccc34)cc2)n1 | – | – | inactive
42 | CN(CCO)CC(=O)CC(O)(C(F)(F)F)C(F)(F)F | > 200 | 39.8 | –
43 | NC(=O)NN=C1CSSC1 | 18.6 | 70.8 | –
44 | CC(C(O)Cc1ccccc1)N(C)N=Nc1ccc([N+](=O)[O-])cc1 (centres undefined) | > 200 | 20 | –

Row | SMILES | EC50 [µM] | IC50 [µM] | outcome
45 | O=C(O)CCC(=O)NCCNC(=O)CCC(=O)O | > 955 | > 955 | –
46 | Cn1c2ccccc2c2oc(-c3nn[nH]n3)cc(=O)c21 | > 126 | > 126 | –
47 | O=C1c2ccccc2-c2c(Br)c3ccccc3c(=O)n21 | > 100 | 69.2 | –
48 | CC1(C)COC2C(N(Cc3ccccc3)Cc3ccccc3)C(=O)N21 (centres undefined) | – | – | inactive
49 | CSC(=NC(=O)c1ccccc1)SCCSC(=NC(=O)c1ccccc1)SC | > 2.34 | > 2.34 | –
50 | Clc1ccccc1C(SCc1ccccc1)SCc1ccccc1 | > 200 | 195 | –
51 | Cc1ccsc1/C=N/Nc1nncc2ccccc12 | > 200 | 25.1 | –
52 | NC(=O)/N=C1/CCC2C3CCCC2C13 | – | – | inactive
53 | CC(CCc1ccc2c(c1)c(=N)c1ccc(N)cc1n2O)CC(C)(C)C (centres undefined) | – | – | inactive
54 | COC1/C=C/OC2(C)Oc3c(C)c(O)c4c(O)c(c(/C=N/Nc5nc6c(N)ncnc6n5C5OC(CO)C(O)C5O)c(O)c4c3C2=O)NC(=O)C(C)=C/C=C/C(C)C(O)C(C)C(O)C(C)C(OC(C)=O)C1C (centres undefined) | > 200 | 158 | –
55 | Cc1cccc(-c2nnc(-c3nn(-c4ccccc4)c4nc5ccccc5nc34)o2)c1 | > 38.9 | 19.5 | –
56 | CC1=Nc2ccccc2C12C(c1ccccc1)C(c1ccccc1)C(=O)N1c3ccccc3CC12 (centres undefined) | > 79.4 | > 79.4 | –
57 | CC12CC(=O)C3C(C(=O)C1)C32C (centres undefined) | > 200 | > 200 | –
58 | CC[C@H]1[C@@H](C)C=C[C@@H](C)N1S(=O)(=O)c1ccc(C)cc1 | > 17.8 | > 17.8 | –
59 | Cc1ccc(/C=C2\Sc3scc(-c4ccccc4)[n+]3C2=O)cc1 | > 200 | 89.1 | –
60 | c1cnn(C23C4C5C6C4C2C6C53)c1 (centres undefined) | > 200 | > 200 | –
61 | COC(=O)N/N=C/c1oc(-c2cccc([N+](=O)[O-])c2)c(-c2cccc([N+](=O)[O-])c2)c1[N+](=O)[O-] | > 79.4 | > 79.4 | –
62 | COc1cc(CC(C)NC(C)=O)cc(OC)c1 (centres undefined) | > 200 | > 200 | –
63 | O=Nc1c(O)cc(Nc2cccnc2)c2ccccc12 | 102 | 182 | –
64 | COC(=O)c1ccc2c(c1)CC1(C2)Cc2ccccc2C1=O (centres undefined) | > 200 | 28.2 | –
65 | COC(=O)C1=C(CS(=O)c2ccc([N+](=O)[O-])cc2[N+](=O)[O-])ON(C)C1c1ccccc1 (centres undefined) | – | – | inactive
66 | CCCCOP(C)(=O)C(NC(=O)OCC)(C(F)(F)F)C(F)(F)F (centres undefined) | > 200 | > 200 | –

Row | SMILES | EC50 [µM] | IC50 [µM] | outcome
67 | CSC1C(=O)Nc2ccc3ccccc3c21 (centres undefined) | > 200 | 10.2 | –
68 | COc1ccc(/C=C2/SC(c3ccc(Cl)cc3)N(NC(=O)CCCCCCCCC(=O)NN3C(=O)/C(=C\c4ccc(OC)c(OC)c4)SC3c3ccc(Cl)cc3)C2=O)cc1OC (centres undefined) | 67.6 | 182 | –
69 | CN1C/C(=C\C=C\c2ccccc2)C(=O)/C(=C/C=C/c2ccccc2)C1 | > 7.24 | > 7.24 | –
70 | O=C(O)CCNc1ccc2c(c1)B(O)OC2 | > 692 | > 692 | –
71 | COc1ccc(/C=C2\CCCCC2=O)cc1 | – | – | inactive
72 | COc1ccc2cc3n(c2c1)CCc1cc(OC)c(OC)cc1-3 | – | – | inactive
73 | O=C1C2C3C4C1C1C2[C@H](OCc2ccccc2)C3C1[C@H]4OCc1ccccc1 (some centres undefined) | > 200 | 42.7 | –
74 | COc1ccc(N2C(=O)C3c4[nH]c5ccc(C)cc5c4C4CCC(C(C)(C)C)CC4C3C2=O)cc1 (centres undefined) | 12 | 47.9 | –
75 | Clc1ccc(Nc2ncco2)cc1Cl | > 200 | 107 | –
76 | C=C1CC(C)(COc2ccc3ccc(=O)oc3c2)OC1=O (centres undefined) | > 20 | 0.275 | –
77 | COc1ccc(-c2nc(-c3cnccn3)n(Cc3ccccc3)n2)cc1 | 83.2 | > 200 | –
78 | CCOC(=O)c1cnc2c3c(noc13)CCC2 | > 200 | 34.7 | –
79 | CC1(C)OC(=O)N(c2ccccc2)C12C=Cc1cc([N+](=O)[O-])ccc1O2 (centres undefined) | > 151 | 61.7 | –
80 | CSC12c3cc(C)n(-c4ccccc4)c3CC(C)(C)CN1C(=O)C2Oc1ccccc1 (centres undefined) | > 200 | 16.2 | –
81 | NC(CCSCCF)C(=O)O (centres undefined) | > 692 | 102 | –
82 | Sc1ccccc1N=Cc1ccc(C=Nc2ccccc2S)cc1 | > 200 | > 200 | –
83 | CCCCCCCCCCCC(=O)OCC1OC(n2cc(F)c(=O)[nH]c2=O)C(N)C(O)C1O (centres undefined) | > 55 | > 55 | –
84 | Nc1c2nc(Nc3ccccc3)sc2nc(=S)n1-c1ccc([N+](=O)[O-])cc1 | > 50.1 | > 50.1 | –
85 | CN1CCC2(CC1)C(=O)N(N1CCCCCC1)C(=O)N2c1ccccc1 | > 200 | > 200 | –
86 | O=c1[nH]c(=O)n(C2CC(O)C(CO)O2)cc1C#Cc1c(F)c(F)c(F)c(F)c1F (centres undefined) | > 603 | 110 | –

Source: PubChem BioAssay AID179 (DTP/NCI, 2004)
